In this test the target is T1, PARK7 (Homo sapiens, UniProt Q99497).
T1 sequence (Q99497 1-189): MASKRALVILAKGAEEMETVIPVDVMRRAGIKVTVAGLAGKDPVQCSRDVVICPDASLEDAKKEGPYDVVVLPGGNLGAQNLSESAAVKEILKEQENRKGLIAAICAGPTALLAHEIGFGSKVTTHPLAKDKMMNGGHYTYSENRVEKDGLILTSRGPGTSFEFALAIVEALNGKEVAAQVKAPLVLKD
The test is described as follows: High-throughput screen of the crude compound library, PARK7 fluorescence polarization (FP) assay with FP reagent JYQ-107. It is filed as biochemical. Particulars: 1.25 µM, crude compound library, read-out: HTS FP assay %Inhibition (1.25 µM).

Like-named read-outs stand apart in the source and are kept apart here.

This passage reports inhibition results from publication PMC11129182, “Development of Inhibitors, Probes, and PROTAC Provides a Complete Toolbox to Study PARK7 in the Living Cell” (Journal of Medicinal Chemistry, 2024).

What is called inhibition is the drop in the measured response relative to a control, in per cent.

For the compound `N#CN1CC[C@@H](C(=O)Nc2nc3c(s2)CN(C(=O)c2ccn(-c4ncc(C(F)(F)F)cc4Cl)n2)CC3)C1` [compound 51], the inhibition at 1.25 µM stood at 85.7%.

In the case of `N#CN1CC[C@@H](C(=O)Nc2nc3c(s2)CN(C(=O)c2ccc(CN4CCOCC4)cc2)CC3)C1` [compound 103], the inhibition at 1.25 µM was 86.4%.

Turning to `N#CN1CC[C@@H](C(=O)Nc2nc3c(s2)CN(C(=O)c2cnccn2)CC3)C1` [compound 402], the inhibition at 1.25 µM (FP reagent JYQ-107) worked out at 85.1%.

For the compound `Cc1cccc(COc2cccc(C(=O)N3CCc4nc(NC(=O)[C@@H]5CCN(C#N)C5)sc4C3)c2)c1` [compound 383], for the setting “FP reagent JYQ-107”, the inhibition at 1.25 µM was 87.5%.

Take `Cc1cc(OCC(=O)N2CCc3nc(NC(=O)[C@@H]4CCN(C#N)C4)sc3C2)ccc1C(C)C` [compound 393]: for the setting “FP reagent JYQ-107”, the inhibition at 1.25 µM was found to be 80.3%.

For the compound `N#CN1CC[C@@H](C(=O)Nc2nc3c(s2)CN(C(=O)C2(n4cnnn4)CCOCC2)CC3)C1` [compound 36], the inhibition at 1.25 µM came to 65.2%.

With `N#CN1CC[C@@H](C(=O)Nc2nc3c(s2)CN(C(=O)c2ccc(F)c(S(=O)(=O)N4CCC4)c2)CC3)C1` [compound 221], the inhibition at 1.25 µM was determined as 94.8%.

For the compound `CN1CCN(C(=O)C2CC=CCC2C(=O)N2CCc3nc(NC(=O)[C@@H]4CCN(C#N)C4)sc3C2)CC1` (stereo partly shown) [compound 97], the inhibition at 1.25 µM was found to be 72.8%.

Take `N#CN1CC[C@@H](C(=O)Nc2nc3c(s2)CN(C(=O)c2cc(S(=O)(=O)Nc4nccs4)ccc2F)CC3)C1` [compound 321]: the inhibition at 1.25 µM is 81.4%.

`Cc1c(Br)cccc1C(=O)N1CCc2nc(NC(=O)[C@@H]3CCN(C#N)C3)sc2C1` [compound 418]: for the setting “FP reagent JYQ-107”, the inhibition at 1.25 µM is 81%.

With `N#CN1CC[C@@H](C(=O)Nc2nc3c(s2)CN(C(=O)c2cc(C4CC4)n[nH]2)CC3)C1` [compound 209], the inhibition at 1.25 µM amounted to 86.7%.

As to `Cc1nn(C2CCOCC2)c(C)c1C(=O)N1CCc2nc(NC(=O)[C@@H]3CCN(C#N)C3)sc2C1` [compound 135], the inhibition at 1.25 µM turned out to be 63%.

In the case of `N#CN1CC[C@@H](C(=O)Nc2nc3c(s2)CN(C(=O)c2nc(OCC4CC4)ccc2Cl)CC3)C1` [compound 238], the inhibition at 1.25 µM worked out at 53.7%.

In the case of `Cc1cc(COc2ccc(C(=O)N3CCc4nc(NC(=O)[C@@H]5CCN(C#N)C5)sc4C3)cc2Br)no1` [compound 173], the inhibition at 1.25 µM worked out at 72.5%.

On to `N#CN1CC[C@@H](C(=O)Nc2nc3c(s2)CN(C(=O)C(Cl)(Cl)Cl)CC3)C1` [compound 460], for which, where the note is “FP reagent JYQ-107”, the inhibition at 1.25 µM amounted to 6.9%.

`N#CN1CC[C@@H](C(=O)Nc2nc3c(s2)CN(C(=O)CCN2C(=O)C=CC2=O)CC3)C1` [compound 398]: the inhibition at 1.25 µM (FP reagent JYQ-107) turned out to be 65.7%.

Regarding `Cc1onc(C(=O)N2CCc3nc(NC(=O)[C@@H]4CCN(C#N)C4)sc3C2)c1CN1CCOCC1` [compound 281], the inhibition at 1.25 µM amounted to 62.3%.

Take `Cn1nccc1[C@@H]1C[C@H]1C(=O)N1CCc2nc(NC(=O)[C@@H]3CCN(C#N)C3)sc2C1` [compound 328]: the inhibition at 1.25 µM amounted to 79.7%.

`N#CN1CC[C@@H](C(=O)Nc2nc3c(s2)CN(C(=O)c2ccc(C=O)cc2)CC3)C1` [compound 424]: the inhibition at 1.25 µM (FP reagent JYQ-107) came out at 76.8%.

For `CC(C)(C)OC(=O)NCC(=O)N1CCc2nc(NC(=O)[C@@H]3CCN(C#N)C3)sc2C1` [compound 408], the inhibition at 1.25 µM (FP reagent JYQ-107) is 75.4%.

On to `N#CN1CC[C@@H](C(=O)Nc2nc3c(s2)CN(C(=O)c2cnn(CC4CCCCO4)c2)CC3)C1` (stereo partly shown) [compound 90], for which the inhibition at 1.25 µM stood at 81.3%.

Consider `Cc1cc(C(=O)N2CCc3nc(NC(=O)[C@@H]4CCN(C#N)C4)sc3C2)c(C)n1-c1ccon1` [compound 130], for which the inhibition at 1.25 µM stood at 76.2%.

As to `N#CN1CC[C@@H](C(=O)Nc2nc3c(s2)CN(C(=O)c2ccc(OCc4cccnc4)cc2)CC3)C1` [compound 317], the inhibition at 1.25 µM stood at 76.2%.

Take `N#CN1CC[C@@H](C(=O)Nc2nc3c(s2)CN(C(=O)Cc2csc(-c4nnc[nH]4)n2)CC3)C1` [compound 202]: the inhibition at 1.25 µM turned out to be 81%.

For `Cc1nc(-c2c(C)c(C)nn(C)c2=O)sc1C(=O)N1CCc2nc(NC(=O)[C@@H]3CCN(C#N)C3)sc2C1` [compound 69], the inhibition at 1.25 µM worked out at 70.5%.
